The nature of data set [1]: Steady-state NDP kinase activity, coupled enzymes (pyruvate kinase, lactate dehydrogenase). Type of data set: biochemical. Particulars: for specific activity: standard conditions: [ATP]=1 mM, [dTDP]=0.2 mM, 20° C. The procedure:
(§1) The activity of NDP kinase was measured at 20° C. with ATP and dTDP as substrates using coupled enzymes (pyruvate kinase and lactate dehydrogenase) (Lascu 1993). One unit is the amount of enzyme that catalyzes the phosphotransfer of 1 μmol/min under standard conditions: [ATP]=1 mM, [dTDP]=0.2 mM. Rate constants (kcat) and Michaelis constants (Km) were determined from initial velocities for two different constant ratios of nucleotide [dTDP]/[ATP]=0.05 0.1 with [ATP] varying from 0.2 to 2 mM. kcat is expressed by enzyme subunit. The ratio of the ^apparentkcat/^apparentKM at a given concentration of the other substrate is equal to the true value of kcat/KM for a ping-pong enzyme.

Data set [2] can be described thus: Human NDPK-A mutants, summary over several nucleotide analogs compared to natural nucleotides. It counts as biochemical. Here is the method:
(§2) The activity assays were performed at the pre-steady state level.
(§3) R, the specificity change, is the ratio of the catalytic efficiencies (for analog versus natural nucleotide) of the mutant compared to the wild type enzyme.
The mutants described so far show altered specificity for antiviral drugs and natural nucleotides. Such a switch is usually defined as R, the specificity change, reflecting the ability of a mutant enzyme to prefer the analog rather than the natural nucleotide according to the expression: [formula]
where R is the ratio of the specificity factors of the mutant compared to the original enzyme, with the specificity factor of an enzyme being defined as the ratio of the catalytic efficiencies (CE=k2/KS) for a nucleotide analog and the natural nucleotide.

Data set [3] concerns E. coli BL21 (DE3) cells expressing L55H-N115S NDPK-A.
Description: (§12) The cells were grown at 37° C. in exponential phase in minimum medium. They were then complemented with various concentrations of AZT, and turbidity at 600 nm was measured after 4H. Transformation with the vector without insertion served as a control.
(§13) Wild type and mutated NDP kinases were overexpressed in E. coli cells, and the sensitivity of exponentially growing cells to AZT was assayed after induction of NDP kinase expression by IPTG. The viability was estimated by plating and counting the cells.
(§14) The sensitivity to AZT of E. coli transformed with NDP kinase expression vectors was evaluated. Bacteriea BL21 (DE3) (Stratagene) were transformed by heat shock with pJC20 vectors (Schaertl, 1998) expressing either the wild type NDPK-A (pJC20-HA), the mutant enzyme N115S (pJC20-N115S), the double mutant enzyme L55H-N115S (pJC20-L55H-N115S), or without insertion (pJC20). Bacteria were grown at 37° C. in M9 liquid medium supplemented with casaminoacids (Dilco ref.) in exponential phase, then 10 μM IPTG was added. After 1 hour, cells were complemented with AZT from 10^−7 mg/mL to 10^−4 mg/mL for 4 hours. One mL of bacteria was plated onto LB agar, incubated overnight at 37° C., and counted.
For data set [4], the system named is E. coli BL21 (DE3) cells transformed with pJC20. Description: AZT sensitivity of E. coli transformed with plasmid without insertion. It counts as cell-based. The note with it: versus bacteria expressing NDPK-A, N115S-NDPK-A and L55H-N115S-NDPK-A, range tested.
Description: as §12, §13, §14
The target in data set [5] is T1, human NDP kinase A (NDPK-A) variant L55H-N115S, SEQ ID NO: 3 (Homo sapiens, UniProt P15531, L55H/N115S).
T1 construct: made in house; host or cells: E. coli
T1 sequence (P15531 whole entry L55H/N115S): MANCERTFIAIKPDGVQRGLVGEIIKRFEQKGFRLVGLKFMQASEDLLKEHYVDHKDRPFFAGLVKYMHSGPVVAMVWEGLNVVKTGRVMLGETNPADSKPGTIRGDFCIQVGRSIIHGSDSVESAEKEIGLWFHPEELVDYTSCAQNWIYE
Briefly: Pre-steady-state phosphotransfer, fluorescence stopped-flow. Particulars: substitution of Asn 115 for Ser and Leu 55 for His. It counts as biochemical. Here is the method: (§4) FIG. 3 depicts the catalytic efficiency of NDPK-A and mutants for nucleoside analogs. The rates of phosphorylation of pure recombinant NDP kinases (1 μM) were measured at the pre-steady state in a fluorescence stopped-flow with d4T-TP (10 to 80 μM). The catalytic efficiency (expressed in M^−1s^−1) was determined from the variation of the rate as a function of analog as shown in FIG. 2 (▾, NDPK-A, ♦ L55H, ● N115S, ▪ L55H-N115S).
as §2, §3
(§5) Wild type human NDPK-A and the mutants were expressed and purified according to Schneider et al., 2000, Mol Pharm. Recombinant wild type and mutant Dd-NDPK were obtained as described (Schneid, 1998a), except for N119Y NDP kinase which was partially purified by Q sepharose FF chromatography. Each protein was characterized by […] electrophoresis. The concentration of 17 kDa subunits of the enzyme was either determined by Bradford assay ([…]) or using an absorbance coefficient of ΔA^280=1.249 for a 1 mg/mL solution of human wild type and N115S NDPK-A, and =0.55 for wild type and mutant N119S, N119T Dd-NDP kinases, respectively.
(§6) As the diphosphate form of analogs were not always available, the triphosphate analogs were used to study phosphate transfer in reaction as in Scheme I. Experiments were performed with an Hi-Tech DX2 microvolume stopped-flow reaction (Schneider, 1998) at Aexc=296 nm (for Ado derivatives) or […] (for other nucleotides), 2 mm excitation slit and a 320 nm cutoff filter at the emission. After mixing NDPK (1 μM) and NTP or an analogTP (10-500 μM), the intrinsic protein fluorescence was recorded for 10-200 sec. In each experiment, 400 pairs of data were recorded, and the data from 3-4 identical experiments were averaged and fitted to a number of non-linear analytical equations using the software provided by Hi-Tech.
(§7) The data were analyzed using the reaction scheme: [drawing 1]
(§8) In both the forward and the reverse reactions, the product concentration remains very low, thus the product binding can be neglected, and the observed single step could be attributed to the phosphotransfer (Schneider, 1998). The rate of this observed single step is: [formula]
and reaches a limiting value (k+2) at NTP saturation. […] Therefore, catalytic efficiencies of phosphorylation (CEphos=k+2/(k−1/k+1)=k+2/KS) were measured, which are equivalent to second order constants and allow a reliable comparison of a variety of NDP kinase substrates.

Data set [6] has as its target T2, Dictyostelium discoideum NDP kinase (Dd-NDPK) variant N119S, SEQ ID NO: 1 (Dictyostelium discoideum, UniProt P22887, N119S).
T2 construct: made in house
Briefly: Steady-state kinetics with ATP and dTDP, coupled enzymes. Type of data set: biochemical. The note with it: dTDP. The procedure: (§9) First, by site-directed mutagenesis, a limited set of amino acid substitutions (Ser, Thr, or Tyr) at the position of Asn 119 were introduced into the active site of Dd-NDPK. The three mutant proteins were expressed and purified to homogeneity, except N119Y, which was found unstable and poorly active (0.05% of wild type activity).
as §1

Data set [7] concerns the target T3, Dictyostelium discoideum NDP kinase (Dd-NDPK) variant N119T (Dictyostelium discoideum, UniProt P22887, N119T).
T3 construct: made in house
Description: Steady-state kinetics with ATP and dTDP, coupled enzymes; reactivity for analogs. Type of data set: biochemical. The note with it: dTDP. Here is the method: as §9, §1

For data set [8], the target named is T4, phosphorylated Dictyostelium wild type NDP kinase (Dictyostelium discoideum, UniProt P22887).
T4 construct: made in house
T4 sequence (P22887 1-155): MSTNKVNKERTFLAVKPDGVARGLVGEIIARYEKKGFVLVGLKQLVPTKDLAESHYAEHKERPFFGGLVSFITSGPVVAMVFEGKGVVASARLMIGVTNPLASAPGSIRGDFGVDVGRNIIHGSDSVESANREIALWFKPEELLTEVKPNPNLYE
Description: Stopped-flow kinetics of phosphorylated enzyme with Acy-DP, wild type. Type of data set: biochemical. Particulars: phospho-enzyme 1 μM, buffer T, 20° C. Here is the method:
(§10) (A) Kinetics of reaction of phosphorylated Dictyostelium wild type and N119S NDP kinases by 100 μM Acyclovir diphosphate (Acy-DP). The phosphorylated enzyme was prepared with a stoichiometry #1 as described (Deville-Bonne 1996). The kinases were preincubated with ATP in excess in buffer T (50 mM Tris-HCl, pH 7.5, 5 mM MgCl2 and 75 mM KCl). The increase in fluorescence upon mixing the phospho-enzyme (1 μM, final concentration) with Acy-DP in buffer T at 20° C. was monitored with a stopped-flow. The solid lines represent the best fit of each curve to a monoexponential.
(§11) (B) Concentration dependence of the rate constant on Acy-DP concentation. The pseudo-first order rate constant for the reaction (kobs) was plotted against Acy-DP.

Data set [9] concerns the target T2, Dictyostelium discoideum NDP kinase (Dd-NDPK) variant N119S, SEQ ID NO: 1. Description: Pre-steady-state phosphotransfer, fluorescence stopped-flow. It counts as biochemical. The procedure:
as §10, §11
All numbers in italics have already been published (Schneider, 1998, 2000) The kinetic constants were measured at the pre-steady-state level using a fluorescence stopped-flow device. The binding constants were determined at equilibrium by recording the increase in fluorescence (Schneider, 2000). Values are the average of three independent determinations.
as §5
as §6, with “Hi-Tech. All curves fitted to single exponentials.” for “Hi-Tech.”
as §7, §8
and reaches a limiting value (k+2) at NTP saturation. Saturation could not be obtained with the concentrations of any NTP used here. Therefore, catalytic efficiencies of phosphorylation (CEphos=k+2/(k−1/k+1)=k+2/KS) were measured, which are equivalent to second order constants and allow a reliable comparison of a variety of NDP kinase substrates.

Data set [10] concerns the target T5, phosphorylated Dictyostelium N119S NDP kinase (Dictyostelium discoideum, UniProt P22887, N119S).
T5 construct: made in house
Briefly: Stopped-flow kinetics of phosphorylated enzyme with Acy-DP, N119S. It counts as biochemical. The procedure: as §10, §11
Acyclovir is an acyclic nucleoside analog of Gua used against Herpes Simplex Virus.

Data set [11] in a line: Pre-steady-state phosphotransfer of human NDPK-A and mutants with d4T-TP. It counts as biochemical. Particulars: ratio of catalytic efficiencies. Here is the method: as §4
The intrinsic fluorescence properties of the three mutants were not affected by the mutations and were quenched upon phosphorylation of the catalytic His, as observed with wild type NDP kinase (Deville-Bonne, 1996). […]
as §6, with “Hi-Tech. […]” for “Hi-Tech.”

Data set [12] can be described thus: Reactivity of Dd-NDPK Asn 119 mutants for nucleotide analogs. It counts as biochemical. Particulars: Dd-NDPK mutant versus wild type.
Source text: as §9

Setting [13] is: identical concentrations of Acy-DP.

For “N115S: human NDPK-A with Asn 115 changed into Ser; SEQ ID NO: 2”, the “steady-state activity relative to NDPK-A” value in data set [1] (ATP and dTDP) was 1/10. The molecule further showed a specific activity in [1] of 140 U/mg. The “specificity change (R), switch in specificity over analogs” value in [2] (analog versus natural nucleotide, mutant versus NDPK-A) was “around 100”.
Consider `Cc1cn([C@H]2C[C@H](N=[N+]=[N-])[C@@H](CO)O2)c(=O)[nH]c1=O` [AZT], for which the viable cells result in [3] (AZT 5 and 10 ng/ml, double mutant versus wild type enzyme or N115S mutant) is on record as “fewer viable cells”. Further, in [3] (E. coli transfected with the double mutant enzyme), the “sensitization to AZT” value is “increased sensitization to AZT”. Besides, the “sensitivity to AZT” value in data set [4] is reported as “less sensitive to AZT”. Besides, the “enhancement of ability to phosphorylate” value in data set [5] is 200-300 times.
As for `Cc1cn([C@H]2C[C@H](O)[C@@H](COP(=O)(O)OP(=O)(O)O)O2)c(=O)[nH]c1=O` [dTDP], the “kcat, times lower than wild type enzyme” value was “ten times lower” in [6] and “three” in data set [7]. Further, the “effect on KM” value in data set [6] (versus wild type) and in [7] (versus wild type) was “little effect on KM” in each case.
For `Nc1nc2c(ncn2COCCOP(=O)(O)OP(=O)(O)O)c(=O)[nH]1` [Acy-DP, Acyclovir diphosphate], the “apparent second order constant, wild type NDP kinase” value in data set [8] came to 670 M⁻¹ s⁻¹. Moreover, in data set [9] (from [Acy-DP] dependency of kobs), the “improvement of catalytic efficiency of phosphorylation by the mutation” value is on record as “seven fold”. Also, the “phosphorylation rate relative to wild type enzyme” value in data set [9] (setting [13]) is recorded as “seven times faster”. Also, in data set [10] (setting [13]), the “times faster phosphorylation by N119S NDP kinase than wild type enzyme” value was “seven”. In data set [10] (phospho-enzyme 1 μM, buffer T, 20° C.), the “apparent second order constant, N119S mutant” value is recorded as 4,500 M^−1s^−1.
The molecule “L55H-N115S: double mutant human NDPK-A, Leu 55 to His and Asn 115 to Ser; SEQ ID NO: 3” came in with a specific activity in data set [1] of 240 U/mg. Further, the “increment in activity with analogs versus NDPK-A” value in data set [2] (catalytic efficiencies of Table II) is listed as 80-100 fold. For the same molecule, the “times more slowly / fold less reaction with d4T-TP than with dTTP” value in data set [11] was “eight”.

B1: N119T: Dd-NDPK with Thr at the position of Asn 119 (protein, UniProt P22887 1-155, looked up, variant N119T)
Nucleoside diphosphate …: MSTNKVNKERTFLAVKPDGVARGLVGEIIARYEKKGFVLVGLKQLVPTKDLAESHYAEHKERPFFGGLVSFITSGPVVAMVFEGKGVVASARLMIGVTNPLASAPGSIRGDFGVDVGRTIIHGSDSVESANREIALWFKPEELLTEVKPNPNLYE
B1: the “enzyme reactivity for analogs” value in data set [12] is “without effect”.

B2: N119S: Dd NDP kinase mutated at position 119, asparagine to serine; SEQ ID NO: 1 (protein, UniProt P22887 1-155, looked up, variant N119S)
Nucleoside diphosphate …: MSTNKVNKERTFLAVKPDGVARGLVGEIIARYEKKGFVLVGLKQLVPTKDLAESHYAEHKERPFFGGLVSFITSGPVVAMVFEGKGVVASARLMIGVTNPLASAPGSIRGDFGVDVGRSIIHGSDSVESANREIALWFKPEELLTEVKPNPNLYE
Consider B2, for which, in data set [1] (natural substrates such as dTDP, steady state, Dd-NDPK), the “catalytic constant kcat, times lower than the wild type enzyme” value is on record as “ten”. The “enzyme reactivity for analogs” value in [12] is given as “improvement”.

For the origin of these results see patent US20030207830A1, “Mutant NDP kinases for antiviral nucleotide analog activation and therapeutic uses thereof” (priority 2002, published 2003).
